Values quoted from earlier work, collected in patent US20090202633A1, “Extended release formulations of guaifenesin” (priority 2008, published 2009).

Columns and labels:
[1] = not given; remark: listed apart in the source

COc1ccccc1OCC(O)CO (centres unmarked) [Guaifenesin, 3-(2-methoxyphenoxy)-1,2-propanediol]
typical plasma half-life: approximately one | solubility in water [1]: soluble in water
